Legend:
barnyardgrass [1] = assay: Test B flood; format: in vivo, Echinochloa crus-galli; conditions: 250 g ai/ha, visual rating on 0 to 100 scale (0 no effect, 100 complete control), 13 to 15 days
Outline: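 Each compound is applied to the floodwater of pots holding 2-leaf seedlings, water standing 3 cm over the soil throughout. Plants stay in a greenhouse 13 to 15 days before visual scoring against controls from 0 (no effect) to 100 (complete control).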

crabgrass, large = assay: Test A postemergence; format: in vivo, Digitaria sanguinalis
Outline: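 Scoring was visual, on a scale where 100 means complete control and 0 means no effect, comparing treated with untreated plants around 10 days post-application. Compounds in surfactant-containing non-phytotoxic solvent were sprayed onto soil preemergence or onto one- to two-leaf seedlings (2–10 cm) postemergence.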

foxtail, giant = assay: Test C postemergence; format: in vivo, Setaria faberii; conditions: for Plant response rating (scale of 0 to 100 where 0 is no effect and 100 is complete control), Foxtail, Giant: Postemergence, 31 g ai/ha, visually evaluated after 13 to 15 days; for Foxtail, Giant plant response rating / Plant response rating, Foxtail, Giant: postemergence; for Foxtail, Giant plant response rating: 62 g ai/ha, scale 0 to 100
Outline: (§1)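 Scores of 0 (no effect) to 100 (complete control) were assigned by eye after 13–15 days, comparing treated pots with controls. Soil-applied (preemergence) treatments went onto seeds in loam and sand; foliar (postemergence) treatments onto 1- to 4-leaf plants in peat medium.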

chickweed = assay: Test C postemergence; format: in vivo, Stellaria media; conditions: for Plant response rating (scale of 0 to 100 where 0 is no effect and 100 is complete control), Chickweed: Postemergence, 31 g ai/ha, visually evaluated after 13 to 15 days; for Chickweed plant response rating / Plant response rating, Chickweed: postemergence; for Chickweed plant response rating: 62 g ai/ha, scale 0 to 100
Outline: as §1

morningglory = assay: Test C postemergence; format: in vivo, Ipomoea coccinea; conditions: for Plant response rating (scale of 0 to 100 where 0 is no effect and 100 is complete control), Morningglory: Postemergence, 31 g ai/ha, visually evaluated after 13 to 15 days; for Morningglory plant response rating / Plant response rating, Morningglory: postemergence; for Morningglory plant response rating: 62 g ai/ha, scale 0 to 100
Outline: as §1

wheat [2] = assay: Test C postemergence; format: in vivo, Triticum aestivum; conditions: for Wheat plant response rating / Plant response rating, Wheat: postemergence; for Wheat plant response rating: scale 0 to 100
Outline: as §1

velvetleaf = assay: Test C preemergence; format: in vivo, Abutilon theophrasti
Outline: as §1

lambsquarters [3] = assay: Test C preemergence; format: in vivo, Chenopodium album
Outline: as §1

kochia = assay: Test C postemergence; format: in vivo, Kochia scoparia; conditions: for Plant response rating (scale of 0 to 100 where 0 is no effect and 100 is complete control), Kochia: Postemergence, 31 g ai/ha, visually evaluated after 13 to 15 days; for Kochia plant response rating / Plant response rating, Kochia: postemergence; for Kochia plant response rating: 62 g ai/ha, scale 0 to 100
Outline: as §1

corn = assay: Test C postemergence; format: in vivo, Zea mays; conditions: for Plant response rating (scale of 0 to 100 where 0 is no effect and 100 is complete control), Corn: Postemergence, 31 g ai/ha, visually evaluated after 13 to 15 days; for Corn plant response rating / Plant response rating, Corn: postemergence; for Corn plant response rating: 62 g ai/ha, scale 0 to 100
Outline: as §1

lambsquarters [4] = assay: Test C postemergence; format: in vivo, Chenopodium album; conditions: for Plant response rating (scale of 0 to 100 where 0 is no effect and 100 is complete control), Lambsquarters: Postemergence, 31 g ai/ha, visually evaluated after 13 to 15 days; for Lambsquarters plant response rating / Plant response rating, Lambsquarters: postemergence; for Lambsquarters plant response rating: 62 g ai/ha, scale 0 to 100
Outline: as §1

barnyardgrass [5] = assay: Test C postemergence; format: in vivo, Echinochloa crus-galli; conditions: for Plant response rating (scale of 0 to 100 where 0 is no effect and 100 is complete control), Barnyardgrass: Postemergence, 31 g ai/ha, visually evaluated after 13 to 15 days; for Barnyardgrass plant response rating / Plant response rating, Barnyardgrass: postemergence; for Barnyardgrass plant response rating: 62 g ai/ha, scale 0 to 100
Outline: as §1

wheat [6] = assay: Test C preemergence; format: in vivo, Triticum aestivum
Outline: as §1

[7] = 250 g ai/ha, scale 0 to 100 (0 no effect, 100 complete control)
[8] = 125 g ai/ha, scale 0 to 100, 0 no effect, 100 complete control
[9] = preemergence, 31 g ai/ha, visual rating, scale 0 to 100 (0 no effect, 100 complete control), 13 to 15 days
[10] = preemergence, 62 g ai/ha, scale 0 to 100 (0 no effect, 100 complete control), 13 to 15 days
[11] = preemergence, 125 g ai/ha, scale 0 to 100, 0 is no effect, 100 is complete control
[12] = Preemergence, rate head not shown (block before 16 g ai/ha), scale 0 to 100
[13] = preemergence, 125 g ai/ha, 13 to 15 days, scale 0 to 100, 0 = no effect, 100 = complete control
[14] = preemergence, 250 g ai/ha, scale 0 to 100, 0 is no effect, 100 is complete control

## CCc1cc(C(=O)NCC(F)(F)F)nn1Cc1cc(C(F)(F)F)nn1C [Compound 108, 5-ethyl-1-[[1-methyl-3-(trifluoromethyl)-1H-pyrazole-5-yl]methyl]-N-(2,2,2-trifluoroethyl)-1H-pyrazole-3-carboxamide]
Barnyardgrass [1]
  Plant response rating, Barnyardgrass: 40
crabgrass, large; Postemergence, 500 g ai/ha, visual rating after approx. 10 days, 0 to 100 scale (0 no effect, 100 complete control)
  Crabgrass, Large plant response rating: 100
crabgrass, large; postemergence, 125 g ai/ha, about 10 days, visual rating on 0 to 100 scale (0 no effect, 100 complete control)
  Crabgrass, Large plant response rating: 90
foxtail, giant
  Plant response rating (scale of 0 to 100 where 0 is no effect and 100 is complete control), Foxtail, Giant: 10
  Foxtail, Giant plant response rating: 30
foxtail, giant; [7]
  Plant response rating, Foxtail, Giant: 45
foxtail, giant; [8]
  Plant response rating, Foxtail, Giant: 40
chickweed
  Plant response rating (scale of 0 to 100 where 0 is no effect and 100 is complete control), Chickweed: 85
  Chickweed plant response rating: 100
chickweed; [7]
  Plant response rating, Chickweed: 100
chickweed; [8]
  Plant response rating, Chickweed: 100
morningglory
  Plant response rating (scale of 0 to 100 where 0 is no effect and 100 is complete control), Morningglory: 50
  Morningglory plant response rating: 50
morningglory; [7]
  Plant response rating, Morningglory: 90
morningglory; [8]
  Plant response rating, Morningglory: 80
Wheat [2]; Postemergence, 31 g ai/ha, visually evaluated after 13 to 15 days
  Plant response rating (scale of 0 to 100 where 0 is no effect and 100 is complete control), Wheat: 0
Wheat [2]; 62 g ai/ha
  Wheat plant response rating: 5
Wheat [2]; [7]
  Plant response rating, Wheat: 20
Wheat [2]; [8]
  Plant response rating, Wheat: 10
velvetleaf; Preemergence, 250 g ai/ha
  Plant response rating (scale of 0 to 100), Velvetleaf: 100
velvetleaf; [9]
  Velvetleaf plant response rating: 55
velvetleaf; [10]
  Velvetleaf plant response rating: 100
velvetleaf; [11]
  Velvetleaf plant response rating: 100
Lambsquarters [3]; Preemergence, 250 g ai/ha
  Plant response rating (scale of 0 to 100), Lambsquarters: 100
Lambsquarters [3]; [9]
  Lambsquarters plant response rating: 100
Lambsquarters [3]; [10]
  Lambsquarters plant response rating: 100
Lambsquarters [3]; [11]
  Lambsquarters plant response rating: 100
kochia
  Plant response rating (scale of 0 to 100 where 0 is no effect and 100 is complete control), Kochia: 40
  Kochia plant response rating: 60
kochia; [7]
  Plant response rating, Kochia: 90
kochia; [8]
  Plant response rating, Kochia: 80
corn
  Plant response rating (scale of 0 to 100 where 0 is no effect and 100 is complete control), Corn: 5
  Corn plant response rating: 5
corn; [7]
  Plant response rating, Corn: 35
corn; [8]
  Plant response rating, Corn: 15
Lambsquarters [4]
  Plant response rating (scale of 0 to 100 where 0 is no effect and 100 is complete control), Lambsquarters: 60
  Lambsquarters plant response rating: 60
Lambsquarters [4]; [7]
  Plant response rating, Lambsquarters: 85
Lambsquarters [4]; [8]
  Plant response rating, Lambsquarters: 80
Barnyardgrass [5]
  Plant response rating (scale of 0 to 100 where 0 is no effect and 100 is complete control), Barnyardgrass: 0
  Barnyardgrass plant response rating: 0
Barnyardgrass [5]; [7]
  Plant response rating, Barnyardgrass: 35
Barnyardgrass [5]; [8]
  Plant response rating, Barnyardgrass: 5
Wheat [6]; Preemergence, 250 g ai/ha
  Plant response rating (scale of 0 to 100), Wheat: 70
Wheat [6]; [9]
  Wheat plant response rating: 10
Wheat [6]; [10]
  Wheat plant response rating: 10
Wheat [6]; [11]
  Wheat plant response rating: 60

## CCc1cc(C(=O)NC2CC2)nn1Cc1ccnc(Br)c1 [Compound 220]
Barnyardgrass [1]
  Plant response rating, Barnyardgrass: 0
crabgrass, large; Postemergence, 125 g ai/ha, 0 to 100 scale, 0 no effect, 100 complete control
  Crabgrass, Large plant response rating: 90
crabgrass, large; Postemergence, 500 g ai/ha, 0 to 100 scale (0 no effect, 100 complete control)
  Crabgrass, Large plant response rating: 100
foxtail, giant
  Plant response rating (scale of 0 to 100 where 0 is no effect and 100 is complete control), Foxtail, Giant: 0
  Foxtail, Giant plant response rating: 5
foxtail, giant; [7]
  Plant response rating, Foxtail, Giant: 5
foxtail, giant; [8]
  Plant response rating, Foxtail, Giant: 5
chickweed
  Plant response rating (scale of 0 to 100 where 0 is no effect and 100 is complete control), Chickweed: 50
  Chickweed plant response rating: 55
chickweed; [7]
  Plant response rating, Chickweed: 80
chickweed; [8]
  Plant response rating, Chickweed: 60
morningglory
  Plant response rating (scale of 0 to 100 where 0 is no effect and 100 is complete control), Morningglory: 10
  Morningglory plant response rating: 55
morningglory; [7]
  Plant response rating, Morningglory: 70
morningglory; [8]
  Plant response rating, Morningglory: 40
Wheat [2]; [7]
  Plant response rating, Wheat: 5
Wheat [2]
  Wheat plant response rating: 0
velvetleaf; [12]
  Plant response rating, Velvetleaf: 5
velvetleaf; [10]
  Velvetleaf plant response rating: 20
velvetleaf; [13]
  Plant response rating, Velvetleaf: 75
velvetleaf; [14]
  Velvetleaf plant response rating: 100
Lambsquarters [3]; [12]
  Plant response rating, Lambsquarters: 60
Lambsquarters [3]; [10]
  Lambsquarters plant response rating: 98
Lambsquarters [3]; [13]
  Plant response rating, Lambsquarters: 100
Lambsquarters [3]; [14]
  Lambsquarters plant response rating: 100
kochia
  Plant response rating (scale of 0 to 100 where 0 is no effect and 100 is complete control), Kochia: 80
  Kochia plant response rating: 85
kochia; [7]
  Plant response rating, Kochia: 90
kochia; [8]
  Plant response rating, Kochia: 90
corn
  Plant response rating (scale of 0 to 100 where 0 is no effect and 100 is complete control), Corn: 5
  Corn plant response rating: 5
corn; [7]
  Plant response rating, Corn: 10
corn; [8]
  Plant response rating, Corn: 5
Lambsquarters [4]
  Plant response rating (scale of 0 to 100 where 0 is no effect and 100 is complete control), Lambsquarters: 30
  Lambsquarters plant response rating: 10
Lambsquarters [4]; [7]
  Plant response rating, Lambsquarters: 25
Lambsquarters [4]; [8]
  Plant response rating, Lambsquarters: 20
Barnyardgrass [5]
  Plant response rating (scale of 0 to 100 where 0 is no effect and 100 is complete control), Barnyardgrass: 0
  Barnyardgrass plant response rating: 0
Barnyardgrass [5]; [7]
  Plant response rating, Barnyardgrass: 15
Barnyardgrass [5]; [8]
  Plant response rating, Barnyardgrass: 10
Wheat [6]; [12]
  Plant response rating, Wheat: 10
Wheat [6]; [10]
  Wheat plant response rating: 0
Wheat [6]; [13]
  Plant response rating, Wheat: 15
Wheat [6]; [14]
  Wheat plant response rating: 0
